Columns and labels:
[1] = molecular target: Ephrin type-A receptor 2 (Homo sapiens, UniProt P29317); assay: Inhibition of recombinant human N-terminal His6-tagged EphA2 (N598 to R890 residues) expressed in baculovirus using poly-EY as substrate after 180 mins by luciferase coupled chemiluminescence assay
[2] = molecular target: Vascular endothelial growth factor receptor 2 (Homo sapiens, UniProt P35968); assay: Inhibition of recombinant human N-terminal GST-fused KDR (D807 to V1356 residues) expressed in baculovirus infected […] insect Sf9 cells using poly-EY as substrate after 240 mins by luciferase coupled chemiluminescence assay
[3] = molecular target: Receptor tyrosine-protein kinase erbB-2 (Homo sapiens, UniProt P04626); assay: Inhibition of recombinant human N-terminal GST His6-tagged thrombin cleavage site-fused ErbB2 kinase domain (Q679 to V1255 residues) expressed in baculovirus infected insect Sf9 cells using biotinylated poly-EY as substrate after 60 mins by alphascreen assay
[4] = molecular target: T1, Ephrin type-B receptor 4 (Homo sapiens, UniProt P54760); assay: Inhibition of recombinant human N-terminal His6-tagged EphB4 kinase domain (E605 to E890 residues) expressed in baculovirus using poly-AEKY as substrate after 150 mins in presence of gamma33P-ATP by liquid scintillation spectrometry
T1 sequence (P54760 whole entry): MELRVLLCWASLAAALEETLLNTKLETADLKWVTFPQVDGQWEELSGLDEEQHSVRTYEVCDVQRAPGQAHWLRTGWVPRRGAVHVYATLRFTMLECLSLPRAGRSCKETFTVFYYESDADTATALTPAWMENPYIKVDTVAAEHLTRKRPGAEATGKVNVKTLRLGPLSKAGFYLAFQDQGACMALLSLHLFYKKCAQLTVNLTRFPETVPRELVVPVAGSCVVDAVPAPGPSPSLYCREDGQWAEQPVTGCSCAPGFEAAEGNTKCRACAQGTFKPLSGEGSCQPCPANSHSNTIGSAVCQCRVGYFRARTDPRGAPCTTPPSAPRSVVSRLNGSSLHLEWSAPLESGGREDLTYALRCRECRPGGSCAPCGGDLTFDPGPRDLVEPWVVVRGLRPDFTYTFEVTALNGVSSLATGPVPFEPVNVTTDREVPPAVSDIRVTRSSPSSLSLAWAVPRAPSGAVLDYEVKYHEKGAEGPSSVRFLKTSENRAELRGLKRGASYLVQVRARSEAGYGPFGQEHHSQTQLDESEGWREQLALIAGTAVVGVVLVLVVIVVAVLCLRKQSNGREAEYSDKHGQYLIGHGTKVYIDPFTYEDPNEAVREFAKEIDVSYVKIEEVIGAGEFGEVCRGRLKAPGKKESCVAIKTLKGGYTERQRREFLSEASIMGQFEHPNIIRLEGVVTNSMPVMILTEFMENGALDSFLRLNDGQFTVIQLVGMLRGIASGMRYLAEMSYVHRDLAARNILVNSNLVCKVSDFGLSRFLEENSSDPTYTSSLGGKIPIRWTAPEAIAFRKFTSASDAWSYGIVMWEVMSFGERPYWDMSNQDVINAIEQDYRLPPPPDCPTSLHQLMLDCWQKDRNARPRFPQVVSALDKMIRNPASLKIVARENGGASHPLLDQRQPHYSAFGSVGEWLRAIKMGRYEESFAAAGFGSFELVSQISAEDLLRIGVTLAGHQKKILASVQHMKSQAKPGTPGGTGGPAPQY

Sequence of Vascular endothelial growth factor receptor 2 (P35968 whole entry, the tested form may be a part): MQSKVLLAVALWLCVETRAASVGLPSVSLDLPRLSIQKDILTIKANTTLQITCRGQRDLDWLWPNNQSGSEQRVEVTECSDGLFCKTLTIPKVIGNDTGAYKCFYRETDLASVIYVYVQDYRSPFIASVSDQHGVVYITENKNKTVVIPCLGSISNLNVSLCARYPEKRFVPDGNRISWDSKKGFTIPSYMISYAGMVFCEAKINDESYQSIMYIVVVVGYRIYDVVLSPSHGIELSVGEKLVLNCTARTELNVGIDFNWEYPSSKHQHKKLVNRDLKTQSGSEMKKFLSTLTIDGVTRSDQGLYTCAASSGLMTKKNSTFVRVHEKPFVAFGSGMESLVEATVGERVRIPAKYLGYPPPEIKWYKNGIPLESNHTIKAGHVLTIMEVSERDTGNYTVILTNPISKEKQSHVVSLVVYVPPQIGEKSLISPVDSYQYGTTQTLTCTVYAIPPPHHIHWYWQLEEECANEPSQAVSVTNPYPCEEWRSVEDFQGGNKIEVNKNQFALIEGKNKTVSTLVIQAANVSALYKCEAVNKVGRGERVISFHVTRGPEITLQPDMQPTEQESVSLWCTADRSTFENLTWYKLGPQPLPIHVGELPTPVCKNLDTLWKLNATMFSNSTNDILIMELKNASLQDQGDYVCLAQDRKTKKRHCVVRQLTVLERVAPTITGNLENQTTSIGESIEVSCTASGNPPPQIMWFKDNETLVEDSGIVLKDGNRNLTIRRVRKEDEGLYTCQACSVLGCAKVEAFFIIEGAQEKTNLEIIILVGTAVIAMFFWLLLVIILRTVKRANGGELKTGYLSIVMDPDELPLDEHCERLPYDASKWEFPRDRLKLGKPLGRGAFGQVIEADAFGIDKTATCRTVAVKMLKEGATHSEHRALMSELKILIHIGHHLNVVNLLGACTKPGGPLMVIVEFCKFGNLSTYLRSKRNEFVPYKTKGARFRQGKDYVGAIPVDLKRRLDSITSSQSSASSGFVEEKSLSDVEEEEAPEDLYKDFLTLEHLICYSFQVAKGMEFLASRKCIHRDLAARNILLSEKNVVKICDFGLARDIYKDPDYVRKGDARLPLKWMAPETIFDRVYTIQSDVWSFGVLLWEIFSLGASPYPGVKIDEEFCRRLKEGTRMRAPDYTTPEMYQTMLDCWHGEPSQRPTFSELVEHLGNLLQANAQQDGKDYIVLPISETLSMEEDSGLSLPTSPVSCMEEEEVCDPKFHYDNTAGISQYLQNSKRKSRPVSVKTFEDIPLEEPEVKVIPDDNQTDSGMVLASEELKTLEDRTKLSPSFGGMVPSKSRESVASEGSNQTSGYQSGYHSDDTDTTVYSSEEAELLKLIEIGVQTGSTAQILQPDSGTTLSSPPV
Sequence of Ephrin type-A receptor 2 (P29317 whole entry, the tested form may be a part): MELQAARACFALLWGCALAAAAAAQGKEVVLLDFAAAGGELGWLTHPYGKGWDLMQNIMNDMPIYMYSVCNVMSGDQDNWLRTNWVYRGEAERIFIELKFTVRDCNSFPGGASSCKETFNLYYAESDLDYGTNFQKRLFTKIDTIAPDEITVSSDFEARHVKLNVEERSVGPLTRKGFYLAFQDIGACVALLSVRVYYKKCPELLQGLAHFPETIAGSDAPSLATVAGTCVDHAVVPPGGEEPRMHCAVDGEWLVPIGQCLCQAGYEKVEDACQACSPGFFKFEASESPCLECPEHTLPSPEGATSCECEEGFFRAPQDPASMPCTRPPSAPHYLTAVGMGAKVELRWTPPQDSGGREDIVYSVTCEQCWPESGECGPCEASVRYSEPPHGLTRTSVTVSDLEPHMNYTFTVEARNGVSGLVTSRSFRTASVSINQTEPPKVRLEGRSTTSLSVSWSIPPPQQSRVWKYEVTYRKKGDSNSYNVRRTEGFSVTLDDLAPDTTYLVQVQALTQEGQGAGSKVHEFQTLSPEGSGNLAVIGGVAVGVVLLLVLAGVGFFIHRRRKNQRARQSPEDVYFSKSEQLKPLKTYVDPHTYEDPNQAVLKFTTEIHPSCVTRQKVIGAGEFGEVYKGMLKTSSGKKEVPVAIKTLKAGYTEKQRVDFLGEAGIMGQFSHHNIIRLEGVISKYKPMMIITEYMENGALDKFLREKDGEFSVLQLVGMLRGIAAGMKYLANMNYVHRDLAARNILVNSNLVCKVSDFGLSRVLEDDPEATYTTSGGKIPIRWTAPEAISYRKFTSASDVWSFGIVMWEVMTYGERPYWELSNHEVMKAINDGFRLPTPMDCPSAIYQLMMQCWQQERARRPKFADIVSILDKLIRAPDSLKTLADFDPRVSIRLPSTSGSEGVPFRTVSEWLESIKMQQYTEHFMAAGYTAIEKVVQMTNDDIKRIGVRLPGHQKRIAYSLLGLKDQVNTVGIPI
Sequence of Receptor tyrosine-protein kinase erbB-2 (P04626 whole entry, the tested form may be a part): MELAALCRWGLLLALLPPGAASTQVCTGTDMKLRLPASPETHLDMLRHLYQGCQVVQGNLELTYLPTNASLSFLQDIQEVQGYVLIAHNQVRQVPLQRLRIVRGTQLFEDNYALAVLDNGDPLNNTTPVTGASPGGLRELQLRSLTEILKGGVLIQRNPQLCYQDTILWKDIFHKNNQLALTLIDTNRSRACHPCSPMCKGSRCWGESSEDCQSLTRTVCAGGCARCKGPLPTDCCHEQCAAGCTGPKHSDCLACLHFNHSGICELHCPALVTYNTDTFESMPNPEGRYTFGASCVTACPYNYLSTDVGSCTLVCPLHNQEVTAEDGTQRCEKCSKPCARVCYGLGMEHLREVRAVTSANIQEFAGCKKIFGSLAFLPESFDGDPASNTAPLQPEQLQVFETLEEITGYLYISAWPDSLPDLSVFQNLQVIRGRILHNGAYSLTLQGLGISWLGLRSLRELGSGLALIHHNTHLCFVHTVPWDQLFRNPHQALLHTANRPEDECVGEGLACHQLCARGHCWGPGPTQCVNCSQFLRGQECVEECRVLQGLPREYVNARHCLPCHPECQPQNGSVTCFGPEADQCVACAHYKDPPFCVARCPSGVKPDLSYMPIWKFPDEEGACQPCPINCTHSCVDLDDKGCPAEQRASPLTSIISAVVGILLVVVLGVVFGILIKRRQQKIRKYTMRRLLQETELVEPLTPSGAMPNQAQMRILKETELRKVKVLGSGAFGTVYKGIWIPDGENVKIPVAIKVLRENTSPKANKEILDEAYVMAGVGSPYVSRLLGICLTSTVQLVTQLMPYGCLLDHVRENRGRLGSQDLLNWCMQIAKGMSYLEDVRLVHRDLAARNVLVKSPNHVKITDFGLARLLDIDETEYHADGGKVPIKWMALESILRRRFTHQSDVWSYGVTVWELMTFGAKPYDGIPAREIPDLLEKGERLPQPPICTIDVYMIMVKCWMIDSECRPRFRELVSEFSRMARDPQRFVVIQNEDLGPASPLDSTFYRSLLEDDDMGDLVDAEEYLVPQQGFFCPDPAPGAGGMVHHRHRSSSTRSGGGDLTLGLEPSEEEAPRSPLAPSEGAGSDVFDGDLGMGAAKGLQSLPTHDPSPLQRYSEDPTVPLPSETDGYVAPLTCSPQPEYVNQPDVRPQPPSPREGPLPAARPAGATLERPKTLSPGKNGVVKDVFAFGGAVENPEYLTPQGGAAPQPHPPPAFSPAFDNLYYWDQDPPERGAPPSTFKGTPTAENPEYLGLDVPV

SMILES	IC50 [1]	IC50 [2]	IC50 [3]	IC50 [4]
COc1cc2c(Nc3cc(F)c(Br)cc3F)ncnc2cc1OCC1CN(C)CCO1 (stereo not drawn)	50 to 1000 nM	< 50 nM	50 to 1000 nM	50 to 1000 nM
COc1cc2c(Nc3ccc(N4CCN(C)CC4)c(Cl)c3Cl)ncnc2cc1O[C@H]1CO[C@H]2[C@@H]1OC[C@@H]2F	1000 to 20000 nM	1000 to 20000 nM	1000 to 20000 nM	1000 to 20000 nM
COc1cc2c(Nc3ccc(Cl)c(Cl)c3F)ncnc2cc1OC[C@@H]1CN(C)CC(=O)N1C	50 to 1000 nM	50 to 1000 nM	1000 to 20000 nM	50 to 1000 nM
COc1cc2c(Nc3ccc(Cl)c(Cl)c3F)ncnc2cc1OCC1CN(C)C(C)(C)CO1 (stereo not drawn)	< 50 nM	< 50 nM	< 50 nM	< 50 nM
COc1cc2c(Nc3ccc(Cl)c(Cl)c3N3CCN(C)CC3)ncnc2cc1O[C@H]1CO[C@H]2[C@@H]1OC[C@@H]2F	1000 to 20000 nM	1000 to 20000 nM	1000 to 20000 nM	1000 to 20000 nM
CN/C(=N\C#N)N1CCOC(COc2cc3ncnc(Nc4ccc(Cl)c(C)c4)c3cc2OC)C1 (stereo not drawn)	50 to 1000 nM	50 to 1000 nM	< 50 nM	< 50 nM
COc1cc2c(Nc3cc(Cl)c(Cl)cc3F)ncnc2cc1OCC1CN(C)CCO1 (stereo not drawn)	50 to 1000 nM	50 to 1000 nM	50 to 1000 nM	< 50 nM
COc1cc2c(Nc3ccc(N4CCN(C)CC4)cc3)ncnc2cc1O[C@H]1CO[C@H]2[C@@H]1OC[C@@H]2F	1000 to 20000 nM	1000 to 20000 nM	1000 to 20000 nM	1000 to 20000 nM
COc1cc2c(Nc3ccc(Br)c(F)c3F)ncnc2cc1OCC1CN(C)CCO1 (stereo not drawn)	50 to 1000 nM	< 50 nM	50 to 1000 nM	50 to 1000 nM
COc1cc2c(Nc3ccc(Br)c(Cl)c3F)ncnc2cc1OCC1CN(C)C(C)(C)CO1 (stereo not drawn)	< 50 nM	< 50 nM	< 50 nM	< 50 nM
COc1cc2c(Nc3ccc(Cl)c(Cl)c3)ncnc2cc1OCc1csc(C2CCCN(C)C2)n1 (stereo not drawn)	50 to 1000 nM	50 to 1000 nM	50 to 1000 nM	50 to 1000 nM
COc1cc2c(Nc3ccc(Cl)c(Cl)c3F)ncnc2cc1OCC1CN(C)CCO1 (stereo not drawn)	< 50 nM	< 50 nM	< 50 nM	< 50 nM
COc1cc2c(Nc3ccc(Cl)c(Cl)c3)ncnc2cc1OCC1CN(C(=O)c2c(C)noc2C)CCO1 (stereo not drawn)	50 to 1000 nM	50 to 1000 nM	< 50 nM	< 50 nM
COc1cc2c(Nc3ccc(Br)c(Cl)c3C)ncnc2cc1OCC1CN(C)CCO1 (stereo not drawn)	50 to 1000 nM	50 to 1000 nM	50 to 1000 nM	50 to 1000 nM
COc1cc2c(Nc3ccc(F)c(Cl)c3F)ncnc2cc1OCC1CN(C)CCO1 (stereo not drawn)	< 50 nM	< 50 nM	< 50 nM	< 50 nM
COc1cc2c(Nc3ccc(Cl)c(Cl)c3)ncnc2cc1OCC1CN(/C(=N/C#N)N2CCCC2)CCO1 (stereo not drawn)	< 50 nM	50 to 1000 nM	< 50 nM	< 50 nM
COc1cc2c(Nc3ccc(Cl)c(Cl)c3)ncnc2cc1OCC1CN(C(=O)c2cccnc2Cl)CCO1 (stereo not drawn)	50 to 1000 nM	< 50 nM	< 50 nM	< 50 nM
COc1cc2c(Nc3ccc(Br)c(Cl)c3F)ncnc2cc1OCC1CN(C)CCO1 (stereo not drawn)	< 50 nM	< 50 nM	< 50 nM	< 50 nM
COc1cc2c(Nc3ccc(Cl)c(Cl)c3)ncnc2cc1OCC1CN(C(N)=NC#N)CCO1 (stereo not drawn)	< 50 nM	< 50 nM	< 50 nM	< 50 nM

The next lines start with the values.

IC50 [1]	IC50 [2]	IC50 [3]	IC50 [4]	SMILES
1000 to 20000 nM	50 to 1000 nM	1000 to 20000 nM	50 to 1000 nM	CCN(CC)[C@H]1CO[C@H]2[C@@H]1OC[C@@H]2Oc1cc2ncnc(Nc3ccc(Br)c(Cl)c3)c2cc1OC
1000 to 20000 nM	1000 to 20000 nM	1000 to 20000 nM	50 to 1000 nM	COc1cc2c(Nc3ccc(Br)c(Cl)c3)ncnc2cc1O[C@H]1CO[C@H]2[C@@H]1OC[C@@H]2OC(C)=O
1000 to 20000 nM	1000 to 20000 nM	1000 to 20000 nM	1000 to 20000 nM	COc1cc2c(Nc3ccc(Br)c(Cl)c3)ncnc2cc1O[C@@H]1CO[C@H]2[C@@H]1OC[C@@H]2OS(C)(=O)=O
1000 to 20000 nM	1000 to 20000 nM	1000 to 20000 nM	50 to 1000 nM	COc1cc2c(Nc3ccc(Br)c(Cl)c3)ncnc2cc1O[C@H]1CO[C@H]2[C@@H]1OC[C@@H]2N1CCCCC1
1000 to 20000 nM	1000 to 20000 nM	50 to 1000 nM	50 to 1000 nM	COc1cc2c(Nc3ccc(Br)c(Cl)c3)ncnc2cc1O[C@H]1CO[C@H]2[C@@H]1OC[C@@H]2S(C)(=O)=O
50 to 1000 nM	50 to 1000 nM	< 50 nM	< 50 nM	CCC(=O)N1CCOC(COc2cc3ncnc(Nc4ccc(Cl)c(Cl)c4)c3cc2OC)C1 (stereo not drawn)
1000 to 20000 nM	50 to 1000 nM	50 to 1000 nM	50 to 1000 nM	COc1cc2c(Nc3ccc(Br)c(Cl)c3)ncnc2cc1O[C@@H]1CCOC1
50 to 1000 nM	< 50 nM	< 50 nM	< 50 nM	COc1cc2c(Nc3ccc(Cl)c(Cl)c3)ncnc2cc1OCC1CN(C)C(C)(C)CO1 (stereo not drawn)
< 50 nM	50 to 1000 nM	< 50 nM	< 50 nM	COc1cc2c(Nc3ccc(Cl)c(Cl)c3)ncnc2cc1OCC1CN(S(C)(=O)=O)CCO1 (stereo not drawn)
1000 to 20000 nM	50 to 1000 nM	1000 to 20000 nM	50 to 1000 nM	COc1cc2c(Nc3ccc(Br)c(Cl)c3)ncnc2cc1OC1CCN(C)C1 (stereo not drawn)
50 to 1000 nM	50 to 1000 nM	< 50 nM	< 50 nM	COc1cc2c(Nc3ccc(Cl)c(Cl)c3)ncnc2cc1OCC1CN(C(C)=O)CCCO1 (stereo not drawn)
1000 to 20000 nM	1000 to 20000 nM	1000 to 20000 nM	50 to 1000 nM	COc1cc2c(Nc3ccc(Br)c(Cl)c3)ncnc2cc1O[C@H]1CO[C@H]2[C@@H]1OC[C@@H]2N1CCCC1
1000 to 20000 nM	1000 to 20000 nM	1000 to 20000 nM	50 to 1000 nM	COc1cc2c(Nc3ccc(Br)c(Cl)c3)ncnc2cc1O[C@H]1CO[C@H]2[C@@H]1OC[C@@H]2SC
1000 to 20000 nM	1000 to 20000 nM	50 to 1000 nM	50 to 1000 nM	COc1cc2c(Nc3ccc(Br)c(Cl)c3)ncnc2cc1O[C@H]1CO[C@H]2[C@@H]1OC[C@@H]2O
1000 to 20000 nM	1000 to 20000 nM	1000 to 20000 nM	50 to 1000 nM	COc1cc2c(Nc3ccc(Br)c(Cl)c3)ncnc2cc1O[C@H]1CO[C@H]2[C@@H]1OC[C@@H]2N
50 to 1000 nM	50 to 1000 nM	< 50 nM	< 50 nM	COc1cc2c(Nc3ccc(Cl)c(Cl)c3)ncnc2cc1OCC1CN(CC(N)=O)CCO1 (stereo not drawn)
50 to 1000 nM	< 50 nM	50 to 1000 nM	< 50 nM	COc1cc2c(Nc3ccc(C)c(Br)c3)ncnc2cc1OCC1CN(C)CCO1 (stereo not drawn)
< 50 nM	50 to 1000 nM	< 50 nM	< 50 nM	CCS(=O)(=O)N1CCOC(COc2cc3ncnc(Nc4ccc(Cl)c(Cl)c4)c3cc2OC)C1 (stereo not drawn)
< 50 nM	< 50 nM	50 to 1000 nM	< 50 nM	COc1cc2c(Nc3ccc(Br)c(Cl)c3)ncnc2cc1OCC1CN(C)CCO1 (stereo not drawn)
50 to 1000 nM	50 to 1000 nM	< 50 nM	< 50 nM	COc1cc2c(Nc3ccc(Cl)c(Cl)c3)ncnc2cc1OCC1CN(S(C)(=O)=O)CCCO1 (stereo not drawn)
50 to 1000 nM	50 to 1000 nM	50 to 1000 nM	50 to 1000 nM	COc1cc2c(Nc3ccc(Br)c(C)c3)ncnc2cc1OCC1CN(C)CCO1 (stereo not drawn)
1000 to 20000 nM	1000 to 20000 nM	50 to 1000 nM	50 to 1000 nM	COc1cc2c(Nc3ccc(Br)c(Cl)c3)ncnc2cc1O[C@@H]1CO[C@H]2[C@@H]1OC[C@@H]2NS(C)(=O)=O
50 to 1000 nM	< 50 nM	50 to 1000 nM	< 50 nM	CCCCN1CCOC(COc2cc3ncnc(Nc4ccc(Cl)c(Cl)c4)c3cc2OC)C1 (stereo not drawn)

Reference: ChEMBL document CHEMBL3882729, “Receptor-type kinase modulators and methods of use” (2009)
